Assay results: patent US20110195910A1, “USE OF TOCOTRIENOL COMPOSITION FOR THE PREVENTION OF CANCER” (DAVOS LIFE SCIENCE PTE. LTD., priority 2008, published 2011)

Tests used:
[1] = test system: human estrogen-independent BCa cells (MDA-MB-231); assay: MTT cell viability, MDA-MB-231 cells; assay type: cell-based; details: MDA-MB-231, 24 hours
Procedure: 1.1.3 Cell viability study and time course experiment—For cell viability study, 1×10^4 cells resuspended in 100 μl medium were plated into each well of a 96-well plate. The cells were then treated with different concentrations of the vitamin-E isomers for 24 hrs. After the treatment, 20 μl of 3-(4,5-Dimethyl thiazol-2-yl)-2,5-diphenyl tetrazolium bromide (MTT) solution was added into each well and the cells were incubated at 37° C. for 2 hrs. The formazan crystals were then re-suspended in 200 μl of DMSO and the intensity at 595 nm was measured. For JNK inhibitor study, cells were pre-treated with 20 μM of SP600125 for 8 hrs prior to the addition of vitamin-E isomers. For time course study, 5×10^3 cells were treated with different concentrations of the vitamin-E isomers and were subjected to MTT cell proliferation assay at the indicated time point. If IC50 for the isomer is >100 μM, 100 μM will be used as treatment dosage.
3.1.4 Cell viability and time course experiments were carried out as described above under item 1.1.3 with the following difference. For inhibitors study, cells were pre-treated with inhibitors (U0126, PD98059 and APN) at targeted dosage for 8 hrs prior to the addition of vitamin-E isomers.

DU145 = details: cited from earlier work
DU145 prostaspheres = assay: Treatment of pre-formed CSC-enriched DU145 prostaspheres; assay type: cell-based; details: 40 ng/ml, 48 hrs
Procedure: (A) CSC enriched prostaspheres were formed by maintaining DU145 cells in non-adherent culture supplemented with serum replacement medium for 14 days. The prostaspheres were then treated with either vehicle, γ-T3 (10, 20 μg/ml) or Docetaxel (Doc, 40 ng/ml) for 48 hrs. Spheroids were counted under microscope before and after treatment. Results were presented as mean % change in spheroid number to control±s.d. Note that spheroids were highly sensitive to γ-T3 treatment but resistant to high dose of Docetaxel. (B) Images of prostaspheres after 48 hrs treatment with vehicle, 40 ng/ml of Docetaxel and 10 μg/ml of γ-T3.
5.1.7 Spheroid formation assay—Spheroid formation assay was performed with a protocol modified from previous study (Folkins C, p3560). Briefly, cells were first trypsinized, washed with 1× PBS and resuspended in DMEM F12 medium. Two hundred cells were added into each well of a 24-well-plate pre-coated with polyHEMA (Sigma, St. Louis, Mo.). Cells will be grown in DMEM/F12 mem (Invitrogen, Carlsbad, Calif.) supplemented with 4 μg/mL insulin (Sigma, St. Louis, Mo.), B27 (Invitrogen, Carlsbad, Calif.), 20 ng/mL EGF (Sigma, St. Louis, Mo.), and 20 ng/mL basic FGF (Invitrogen, Carlsbad, Calif.). Fresh medium with the above supplements was added every day. γ-T3 was added at indicated time points and the number of spheroids was counted at day 14 of the assay or at the end of the treatment. Each experiment was repeated in triplicates and each data point represented the mean and standard derivation.

[2] = test system: human androgen-dependent PCa cells (LNCaP); assay: MTT cell viability, LNCaP cells; assay type: cell-based
Procedure: 2.1.3 Cell viability study and time course experiment—For cell viability study, 5×10^3 cells resuspended in 100 μl medium were plated into each well of a 96-well plate. The cells were then treated with different concentrations (20, 40, 60, 80, 100 μM) of the vitamin-E isomers for 24 and 48 hrs. After the treatment, 20 μl of MTT solution was added into each well and the cells were incubated at 37° C. for 2 hrs. The formazan crystals were then re-suspended in 200 μl of DMSO and the intensity at 595 nm were measured. For JNK inhibitor study, cells were pre-treated with 20 μM of SP600125 for 8 hrs prior to the addition of vitamin-E isomers. For time course study, 5×10^3 cells (LNCaP and PC3) were treated with IC50 concentrations of the vitamin-E isomers and were subjected to MTT assay at the indicated time point. […] After 24 hrs, cells were subjected to western blotting and MTT assays respectively.

MDA-MB-231 cells = assay: Flow cytometry, western blotting and RT-PCR, MDA-MB-231 cells; assay type: cell-based, human; details: MDA-MB-231
Procedure: 1.1.3 Flow cytometry—Cell cycle distribution was examined using flow cytometry. Briefly, cells were harvested by trypsinization, fixed in 70% ethanol at 4° C. overnight, and then resuspended in PBS. After incubation at 4° C. for overnight, 2×10^6 cells were incubated with in 20 μg/ml propidium iodide (PI) and 2 mg RNaseA for 15 minutes at 37° C. Cells were then examined by BD SLRII cytometer and the results were analyzed using ModFit software (Becton Dickinson, Mountain View, Calif.). Data were expressed as the percentage of cell cycle distribution in the entire population.
1.1.5 Western blotting—Detailed protocols have been described previously and are known in the art. Briefly, cell lysates were prepared by suspending cell pellets in lysis buffer [50 mmol/l Tris-HCl (pH 8.0), 150 mmol/l NaCl, 1% NP40, 0.5% deoxycholate, 0.1% SDS, 1 mg/ml aprotinin, 1 μg/ml leupeptin and 1 mmol/l phenylmethylsulfonyl fluoride]. For nuclear protein extraction, NucBuster™ protein extraction kit was used. Protein concentration was measured using the DC Protein Assay kit (Bio-Rad, Hercules, Calif.). Equal amount of protein (30 μg) was loaded onto a 10% SDS polyacrylamide gel for electrophoresis and then transferred onto a polyvinylidene difluoride membrane (Amersham, Piscataway, N.J.). The membrane was then incubated with primary antibodies for 1 hr at room temperature against E-cadherin (BD Biosciences, Bedford, Mass.), α-catenin, β-catenin, γ-catenin, Id-1, Id-3, EGFR, phosphor-c-jun, phosphor-ATF2, cleaved PARP, vimentin, α-smooth muscle actin, twist (Santa Cruz Biotechnology, Calif.), phosphor-IkB-alpha (Ser32/36), phosphor-IKK alpha (Seri 80)/IKK beta (Ser181), phosphor-SAPK/JNK (Thr183/Tyr185) G9, SAPK/JNK, NF-kB p65 (5A5) (Cell Signaling Technology Inc, Beverly, Mass.), Snail (Abcam). After incubation with appropriate secondary antibodies, signals were visualized by ECL western blotting system (Amersham, Piscataway, N.J.). Expression of β-actin and histone H1 were assessed as an internal loading control for total cell lysate and nuclear protein lysate respectively.
3.1.5 DNA fragmentation assay—After 24 hrs incubation with gamma-T3, 3×10^6 MDA-MB-231 cells were harvested and suspended in lysis buffer [5 mM Tris-HCl (pH 8.0), 20 mM EDTA, and 0.5% (v/v) Triton X-100] for 60 min on ice. Samples were centrifuged, the supernatants were removed and incubated with 5 μl RNase A (10 μg/ml) at 37° C. for 40 min, and 1 ml of anhydrous ethanol was added. Tubes were placed at […] for 20 min and then centrifuged to pellet the DNA. DNA samples were analyzed by electrophoresis at 80 V for 3 hrs on a 2% agarose gel containing ethidium bromide (0.2 μg/ml) and visualized under UV illumination.
3.1.6 Terminal deoxynucleotidyltransferase-mediated deoxyuridine triphosphate nick end-labelling (TUNEL) assay—DNA strand breaks during apoptosis was examined using in situ cell death detection reagent (Roche Applied Science). Briefly, 1×10^6 cells were pretreated with gamma-T3 for 24 hrs. Thereafter, cells were incubated with reaction mixture for 60 min at 37° C. Stained cells were analyzed and captured by fluorescence microscope on glass slide.
3.1.7 Flow cytometry was carried out as described above under item 1.1.3. Matrigel-invasion assay was carried out as described above under item 1.1.4. Western blotting was carried out as described above under item 1.1.5.
3.1.8 Id-1 RT-PCR—Total RNA was isolated using Trizol® reagent according to the manufacturer's protocol (Invitrogen). cDNA was synthesized using the SuperScript™ First Strand Synthesis System (Invitrogen) and was then amplified by PCR with Id-1 specific primers (forward primer, Id1-S, 5′-CTCCAGCACGTCATCGACTA-3′ and reverse primer, Id1-AS,5′-AAC GCA TGC CGC CTC-3′). PCR cycling protocol was as follows: 30 cycles of 10 min at 95° C., 30 s at 95° C., 30 s at 55° C., 1 min at 72° C. and 10 min at 72° C. Glyceraldehyde 3-phosphate dehydrogenase was amplified as an internal control. […]

[3] = test system: prostate intraepithelial neoplasia (PIN); assay: Prevention of prostate intraepithelial neoplasia (PIN) in prostate cancer mouse models; assay type: in vivo; details: fed mice, FIG. 8
Procedure: For experiments, 5-week old prostate cancer mouse models previously published (Gabril, M. Y., Duan, W., et al., Molecular Therapy (2005), vol. 11, no. 3, p. 348; Greenberg et al., Proc Natl Acad Sci USA (1995), vol. 92, pp. 3439-3443; Duan, W., Gabril, M. Y., et al., Oncogene (2005) 24, 1510-1524; Wang S, Gao J, et al., Cancer Cell., 2003, vol. 4, no. 3, pp. 209-21; Gabril, M. Y., Onita, T., et al., Gene Ther., 2002, vol. 9, no. 23, pp. 1589-99) are used. All animal experiments were conducted according to standard protocols approved by Animal Care Committee. Genotyping was performed in PSP-TGMAP, and KIMAP mice were identified by a quick PCR genotyping protocol as previously reported (see above references referred to under item 6).
In one exemplary experiment, the animals are given 1 mg of gamma tocotrienol per day for 30 weeks via oral gavage. At the end of 10, 20 and 30 weeks, animals are sacrificed. The prostate along with the male accessory glands, i.e., the ventral and dorsolateral prostate lobes, seminal vesicles, and coagulation gland, were dissected out separately for histopathological characterization of prostate tumor development, prostate intraepithelial neoplasia (PIN) development and microinvasion. […]

## N#CC(=C(/N)Sc1ccccc1N)/C(C#N)=C(\N)Sc1ccccc1N [U0126]
[1]
  cancer cell viability after gamma-T3 treatment with MAPK inhibitor: not able to restore cancer cell viability

## CC(=O)O[C@@]12CO[C@@H]1C[C@H](O)[C@@]1(C)C(=O)[C@H](O)C3=C(C)[C@@H](OC(=O)[C@H](O)[C@@H](NC(=O)OC(C)(C)C)c4ccccc4)C[C@@](O)([C@@H](OC(=O)c4ccccc4)[C@H]21)C3(C)C [Docetaxel, (2R,3S)—N-carboxy-3-phenylisoserine, N-tert-butylester, 13-ester with 5,20-epoxy-1,2,4,7,10,13-hexahydroxytax-11-en-9-one-4-acetate-2-benzoate, trihydrate, reference compound]
DU145
  IC90 dosage: 1.01 ng/mL
DU145 prostaspheres
  effect on prostasphere number: failed to induce any observable effect on prostasphere number

## COc1cccc(-c2cc(=O)c3ccccc3o2)c1N [PD98059]
[1]
  cancer cell viability after gamma-T3 treatment with MAPK inhibitor: not able to restore cancer cell viability

## Cc1c(O)cc2c(c1C)O[C@](C)(CCC[C@H](C)CCC[C@H](C)CCCC(C)C)CC2 [γ-T, 7,8-dimethyltocol, reference compound]
[2]; data not shown
  induction of apoptosis in LNCaP cells: induce apoptosis in LNCaP cells at a dose similar to γ-T3

## N#CCCN [β-aminopropionitrile, reference compound]
MDA-MB-231 cells
  Id1 expression on co-treatment with gamma-T3: almost completely restored the expression of Id1

## CC(C)=CCC/C(C)=C/CC/C(C)=C/CC[C@]1(C)CCc2cc(O)cc(C)c2O1 [δ-T3, 8-methyltocotrienol]
[2]; compared with the other isomers
  potency in suppressing cell growth in LNCaP: more potent
[3]
  development of prostate intraepithelial neoplasia (PIN): did not develop PIN
